Assay results published in ChEMBL document CHEMBL3885881, “DrugMatrix”.

Species on record: Rattus norvegicus
Assay: DrugMatrix - Regimen: Daily Repeat
Assay type: toxicity, organism-based, Sprague-Dawley
Design: regimen Daily Repeat, gender Male, age 6-8 weeks
Conditions: in vivo, po, route oral GAVAGE; for POTASSIUM / SODIUM / TOTAL BILIRUBIN / TOTAL PROTEIN / URIC ACID / ALANINE AMINOTRANSFERASE / ALBUMIN / ALKALINE PHOSPHATASE / ASPARTATE AMINOTRANSFERASE / BLOOD UREA NITROGEN / CARBON DIOXIDE / CHLORIDE / CHOLESTEROL / CREATINE PHOSPHOKINASE / CREATININE / GLUCOSE / LACTATE DEHYDROGENASE / LIPASE / PHOSPHORUS: tissue Plasma; for ABSOLUTE EOSINOPHIL / ABSOLUTE LYMPHOCYTE / ABSOLUTE MONOCYTE / ABSOLUTE SEGMENTED NEUTROPHIL / EOSINOPHIL / ERYTHROCYTE COUNT / HEMATOCRIT / HEMOGLOBIN / LEUKOCYTE COUNT / LYMPHOCYTE / MEAN CORPUSCULAR HEMOGLOBIN / MEAN CORPUSCULAR HEMOGLOBIN CONCENTRATION / MEAN CORPUSCULAR VOLUME / MONOCYTE / NEUTROPHIL / PLATELET COUNT / ABSOLUTE BASOPHIL / BASOPHIL / NUCLEATED RED BLOOD CELLS: tissue Blood
[1] = 60 mg/kg, 120 h, dose level Low, time 5 day, vehicle 100 % WATER
[2] = 600 mg/kg, 72 h, dose level High, time 3 day, […]
[3] = 600 mg/kg, 72 h, dose level High, time 3 day, vehicle 100 % WATER
[4] = 600 mg/kg, 120 h, dose level High, time 5 day, […]
[5] = 600 mg/kg, 120 h, dose level High, time 5 day, vehicle 100 % WATER

## ClC(Cl)Cl [CHLOROFORM]
[1]
  POTASSIUM: 6.14 MEQ/L
  SODIUM: 145.6 MEQ/L
  TOTAL BILIRUBIN: 0.1 mg/dL
  TOTAL PROTEIN: 6.3 G/DL
  URIC ACID: 1.5 mg/dL
[2]
  ABSOLUTE EOSINOPHIL: 29.6 CELLS/uL
  ABSOLUTE LYMPHOCYTE: 12329.2 CELLS/uL
  ABSOLUTE MONOCYTE: 476.6 CELLS/uL
  ABSOLUTE SEGMENTED NEUTROPHIL: 1764.6 CELLS/uL
  EOSINOPHIL: 0.2%
  ERYTHROCYTE COUNT: 7.17 x10E6/uL
  HEMATOCRIT: 43%
  HEMOGLOBIN: 15.88 G/DL
  LEUKOCYTE COUNT: 14.6 x10E3/uL
  LYMPHOCYTE: 84.4%
  MEAN CORPUSCULAR HEMOGLOBIN: 22.2 pg
  MEAN CORPUSCULAR HEMOGLOBIN CONCENTRATION: 37 G/DL
  MEAN CORPUSCULAR VOLUME: 60.02 fL
  MONOCYTE: 3.2%
  NEUTROPHIL: 12.2%
  PLATELET COUNT: 1301.6 x10E3/uL
  ALANINE AMINOTRANSFERASE: 196 u/L
  ALBUMIN: 4.36 G/DL
  ALKALINE PHOSPHATASE: 902 u/L
  ASPARTATE AMINOTRANSFERASE: 462.4 u/L
  BLOOD UREA NITROGEN: 20.8 mg/dL
  CARBON DIOXIDE: 16.6 mmol/L
  CHLORIDE: 107.4 MEQ/L
  CHOLESTEROL: 77.6 mg/dL
  CREATINE PHOSPHOKINASE: 516 u/L
  CREATININE: 0.44 mg/dL
  GLUCOSE: 134.8 mg/dL
  LACTATE DEHYDROGENASE: 597.4 u/L
  LIPASE: 10.6 u/L
  PHOSPHORUS: 13.48 mg/dL
  POTASSIUM: 5.66 MEQ/L
  SODIUM: 144.48 MEQ/L
  TOTAL BILIRUBIN: 0.72 mg/dL
  TOTAL PROTEIN: 6.04 G/DL
  URIC ACID: 2.72 mg/dL
[3]
  ABSOLUTE BASOPHIL: 0 CELLS/uL
  ABSOLUTE EOSINOPHIL: 0 CELLS/uL
  ABSOLUTE LYMPHOCYTE: 7700 CELLS/uL
  ABSOLUTE MONOCYTE: 77.67 CELLS/uL
  ABSOLUTE SEGMENTED NEUTROPHIL: 589 CELLS/uL
  BASOPHIL: 0%
  EOSINOPHIL: 0%
  ERYTHROCYTE COUNT: 6.05 x10E6/uL
  HEMATOCRIT: 38.4%
  HEMOGLOBIN: 14.97 G/DL
  LEUKOCYTE COUNT: 8.37 x10E3/uL
  LYMPHOCYTE: 88%
  MEAN CORPUSCULAR HEMOGLOBIN: 24.73 pg
  MEAN CORPUSCULAR HEMOGLOBIN CONCENTRATION: 38.97 G/DL
  MEAN CORPUSCULAR VOLUME: 63.43 fL
  MONOCYTE: 1.33%
  NEUTROPHIL: 10.67%
  NUCLEATED RED BLOOD CELLS: 0 /100WBC
  PLATELET COUNT: 1080.33 x10E3/uL
  ALANINE AMINOTRANSFERASE: 73.33 u/L
  ALBUMIN: 4.4 G/DL
  ALKALINE PHOSPHATASE: 416 u/L
  ASPARTATE AMINOTRANSFERASE: 103.67 u/L
  BLOOD UREA NITROGEN: 14.67 mg/dL
  CARBON DIOXIDE: 34.33 mmol/L
  CHLORIDE: 98.67 MEQ/L
  CHOLESTEROL: 81.67 mg/dL
  CREATINE PHOSPHOKINASE: 203.67 u/L
  CREATININE: 0.22 mg/dL
  GLUCOSE: 153.67 mg/dL
  LACTATE DEHYDROGENASE: 179 u/L
  LIPASE: 10.67 u/L
  PHOSPHORUS: 10 mg/dL
  POTASSIUM: 5.43 MEQ/L
  SODIUM: 144.7 MEQ/L
  TOTAL BILIRUBIN: 0.13 mg/dL
  TOTAL PROTEIN: 6.6 G/DL
  URIC ACID: 0.7 mg/dL
[4]
  ABSOLUTE LYMPHOCYTE: 11359.33 CELLS/uL
  ABSOLUTE MONOCYTE: 227.33 CELLS/uL
  ABSOLUTE SEGMENTED NEUTROPHIL: 6880 CELLS/uL
  ERYTHROCYTE COUNT: 7.17 x10E6/uL
  HEMATOCRIT: 42.1%
  HEMOGLOBIN: 15.6 G/DL
  LEUKOCYTE COUNT: 18.47 x10E3/uL
  LYMPHOCYTE: 73%
  MEAN CORPUSCULAR HEMOGLOBIN: 21.73 pg
  MEAN CORPUSCULAR HEMOGLOBIN CONCENTRATION: 37.07 G/DL
  MEAN CORPUSCULAR VOLUME: 58.7 fL
  MONOCYTE: 2%
  NEUTROPHIL: 25%
  PLATELET COUNT: 1040.67 x10E3/uL
  ALANINE AMINOTRANSFERASE: 212 u/L
  ALBUMIN: 4.1 G/DL
  ALKALINE PHOSPHATASE: 626 u/L
  ASPARTATE AMINOTRANSFERASE: 299.67 u/L
  BLOOD UREA NITROGEN: 49.67 mg/dL
  CARBON DIOXIDE: 19.67 mmol/L
  CHLORIDE: 110.67 MEQ/L
  CHOLESTEROL: 110.33 mg/dL
  CREATINE PHOSPHOKINASE: 744 u/L
  CREATININE: 0.83 mg/dL
  GLUCOSE: 119.33 mg/dL
  LACTATE DEHYDROGENASE: 376 u/L
  PHOSPHORUS: 13.27 mg/dL
  POTASSIUM: 9.12 MEQ/L
  SODIUM: 144.83 MEQ/L
  TOTAL BILIRUBIN: 0.63 mg/dL
  TOTAL PROTEIN: 5.77 G/DL
  URIC ACID: 1.3 mg/dL
[5]
  ABSOLUTE BASOPHIL: 0 CELLS/uL
  ABSOLUTE EOSINOPHIL: 0 CELLS/uL
  ABSOLUTE LYMPHOCYTE: 9175.5 CELLS/uL
  ABSOLUTE MONOCYTE: 105.5 CELLS/uL
  ABSOLUTE SEGMENTED NEUTROPHIL: 1269 CELLS/uL
  BASOPHIL: 0%
  EOSINOPHIL: 0%
  ERYTHROCYTE COUNT: 6.48 x10E6/uL
  HEMATOCRIT: 39.2%
  HEMOGLOBIN: 15.15 G/DL
  LEUKOCYTE COUNT: 10.55 x10E3/uL
  LYMPHOCYTE: 88%
  MEAN CORPUSCULAR HEMOGLOBIN: 23.4 pg
  MEAN CORPUSCULAR HEMOGLOBIN CONCENTRATION: 38.7 G/DL
  MEAN CORPUSCULAR VOLUME: 60.5 fL
  MONOCYTE: 1%
  NEUTROPHIL: 11%
  NUCLEATED RED BLOOD CELLS: 0 /100WBC
  PLATELET COUNT: 959 x10E3/uL
  ALANINE AMINOTRANSFERASE: 46.5 u/L
  ALBUMIN: 4.05 G/DL
  ALKALINE PHOSPHATASE: 305.5 u/L
  ASPARTATE AMINOTRANSFERASE: 71 u/L
  BLOOD UREA NITROGEN: 15 mg/dL
  CARBON DIOXIDE: 29 mmol/L
  CHLORIDE: 102.5 MEQ/L
  CHOLESTEROL: 69 mg/dL
  CREATINE PHOSPHOKINASE: 475.5 u/L
  CREATININE: 0.21 mg/dL
  GLUCOSE: 150.5 mg/dL
  LACTATE DEHYDROGENASE: 93 u/L
  LIPASE: 11 u/L
  PHOSPHORUS: 11.45 mg/dL
  POTASSIUM: 5.24 MEQ/L
  SODIUM: 146.9 MEQ/L
  TOTAL BILIRUBIN: 0.1 mg/dL
  TOTAL PROTEIN: 6.05 G/DL
  URIC ACID: 0.95 mg/dL
